Values of other authors as cited in patent US11654154B2, “Process for preparing injectable Fosaprepitant Dimeglumine compositions having improved storage stability” (Navinta III Inc, priority 2019, dated 2023).
“Also recorded” adds a separate entry of the source.

What was measured:
[1] = for Solubility in water / aqueous solution (in words): water or aqueous solution
[2] = system: chemotherapy induced nausea and vomiting (CINV); conditions: added to standard regimen of ondansetron and dexamethasone; highly emetogenic cisplatin-based chemotherapy

| SMILES | Solubility in water / aqueous solution (in words) [1] | Protection against CINV [2] | Solubility in water ([1]; water) |
| --- | --- | --- | --- |
| C[C@@H](O[C@H]1OCCN(Cc2n[nH]c(=O)[nH]2)[C@H]1c1ccc(F)cc1)c1cc(C(F)(F)F)cc(C(F)(F)F)c1 [Aprepitant] | limited solubility; also recorded: minimal solubility | consistently superior protection | – |
| C[C@@H](O[C@H]1OCCN(Cc2nc(O)n(P(=O)(O)O)n2)[C@H]1c1ccc(F)cc1)c1cc(C(F)(F)F)cc(C(F)(F)F)c1 [Fosaprepitant] | good solubility | – | about 300 mg/mL |
